Source: the NIST ThermoML archive (doi:10.1016/j.jct.2017.07.013)

Test: refractive index (Na D-line) (dimensionless); xn = mol fraction of the nth substance listed
Settings: 101.3 kPa, Liquid, Standard Abbe refractometry

CCCC[n+]1ccn(C)c1.O=S(=O)([N-]S(=O)(=O)C(F)(F)F)C(F)(F)F + COC(=O)OC
refractive index
Settings | 303.15 K | 308.15 K | 313.15 K | 318.15 K | 323.15 K
x1 = 0.0512 | 1.3757 | 1.3741 | 1.3744 | 1.3724 | 1.3719
x1 = 0.101 | 1.3844 | 1.383 | 1.3836 | 1.3819 | 1.3817
x1 = 0.1495 | 1.3913 | 1.39 | 1.3907 | 1.3892 | 1.3893
x1 = 0.1945 | 1.3965 | 1.3953 | 1.3959 | 1.3946 | 1.3948
x1 = 0.2994 | 1.4053 | 1.4042 | 1.4042 | 1.403 | 1.4033
x1 = 0.3999 | 1.4106 | 1.4095 | 1.4089 | 1.4077 | 1.4078
x1 = 0.4976 | 1.4141 | 1.4131 | 1.4119 | 1.4107 | 1.4106
x1 = 0.5842 | 1.4165 | 1.4155 | 1.414 | 1.4128 | 1.4126
x1 = 0.6886 | 1.4191 | 1.4181 | 1.4166 | 1.4154 | 1.4149
x1 = 0.7475 | 1.4204 | 1.4195 | 1.418 | 1.4168 | 1.4162
x1 = 0.8014 | 1.4216 | 1.4207 | 1.4193 | 1.4181 | 1.4172
x1 = 0.889 | 1.4233 | 1.4223 | 1.4208 | 1.4196 | 1.4185
x1 = 0.9526 | 1.4242 | 1.423 | 1.4213 | 1.4199 | 1.4183
x1 = 1 | 1.4245 | 1.4231 | 1.421 | 1.4195 | 1.4173
